For series [1], the system named is serotonin 5HT1A receptor. More on the design: method as in PMID 17574977. The note with it: inhibitor of CYP2E1; cited from earlier work.
Series [2] deals with rhCYPs 1A2, 2C9, 2C19, 2D6, and 3A4. Put plainly: Metabolite profiling of rhCYP incubations. Format: in vitro ADME, human. The conditions noted are these: qualitative LC/MS. As to the method: After a 10 min preincubation at 37°C, the reaction was initiated by addition of 2.0 mM NADPH and incubated for 15 and 60 min. The reactions were terminated by the addition of two volumes of DMSO. Samples were subsequently centrifuged at 4,000 rpm for 10 min. From the resulting supernatant, 10 μL was analysed by liquid chromatography/tandem mass spectrometry (LC-MS/MS). Control experiments were performed by substituting the active enzyme preparation by insect cell preparations containing no rhCYP.
Qualitative high resolution LC/MS data was acquired on a Waters Premier hybrid quadrupole time-of-flight (QToF) mass spectrometer (Waters, Boston MA, USA) equipped with a liquid chromatography system, using a 10 min gradient method and an Acquity UPLC BEH C18 (2.1 × 100 mm, 1.7 μm) column (Waters, Boston MA). The QToF Premier operated with a cone voltage of 30 eV and collision energy of 30 eV. The gradient employed was 95% solvent A (25 mM ammonium acetate, pH = 9) as the start condition followed by a linear ramp of organic phase concentration from 5% B (25 mM ammonium acetate/MeOH/acetonitrile 10/10/80) to 95% B over 6.5 min. The final ratio was held for 2 min and then reduced again to 5% B over 1 min. Interpretation of data was performed with Metabolynx software (Waters, Boston, MA, USA).

The target in series [3] is T1, rhCYP 3A4 (Homo sapiens, UniProt P08684).
T1 construct: purchased BD Gentest (Woburn, MA, USA); host or cells: Baculovirus transfected insect cell system
T1 sequence (P08684 whole entry): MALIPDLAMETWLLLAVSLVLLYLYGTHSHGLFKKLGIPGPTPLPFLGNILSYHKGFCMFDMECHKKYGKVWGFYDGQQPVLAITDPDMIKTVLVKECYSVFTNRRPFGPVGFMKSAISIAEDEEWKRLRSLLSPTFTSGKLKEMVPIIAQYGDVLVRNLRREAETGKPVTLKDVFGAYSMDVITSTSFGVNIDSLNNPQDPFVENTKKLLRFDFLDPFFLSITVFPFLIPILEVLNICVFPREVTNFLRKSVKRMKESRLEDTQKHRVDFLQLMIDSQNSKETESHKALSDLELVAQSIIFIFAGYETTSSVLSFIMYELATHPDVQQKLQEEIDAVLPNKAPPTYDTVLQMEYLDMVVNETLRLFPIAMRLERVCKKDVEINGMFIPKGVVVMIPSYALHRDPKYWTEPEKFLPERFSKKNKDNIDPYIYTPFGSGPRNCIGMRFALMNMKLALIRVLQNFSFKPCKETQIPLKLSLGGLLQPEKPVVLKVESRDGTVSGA
Briefly: Incubation with recombinantly expressed CYP3A4. Format: in vitro ADME. The protocol: (§1) After a 10 min preincubation at 37°C, the reaction was initiated by addition of 2.0 mM NADPH and incubated for 15 and 60 min. The reactions were terminated by the addition of two volumes of DMSO. Samples were subsequently centrifuged at 4,000 rpm for 10 min. From the resulting supernatant, 10 μL was analysed by liquid chromatography/tandem mass spectrometry (LC-MS/MS). […] Quantification was performed on a TSQ-Vantage instrument (Thermofisher Scientific, Bremen, Germany), fitted with an electrospray ionization source. […] Elution was performed on a Waters XBridge C18 column (3 × 2.1 mm, 2.5 μm; Waters, Boston MA, USA). Solvents A (0.1% formic acid in water) and B (0.1% formic acid in acetonitrile) were used at a flow rate of 500 μL/min. […] The final ratio was held for a further 0.6 min and then reduced again to 5% B over 0.05 min. Data was processed using QuickQuan (Thermofisher Scientific, Bremen, Germany).

Series [4] addresses T2, rhCYP 2C19 (Homo sapiens, UniProt P33261).
T2 construct: purchased BD Gentest (Woburn, MA, USA); host or cells: Baculovirus transfected insect cell system
Put plainly: Incubation with recombinantly expressed CYP2C19. Format: in vitro ADME. The protocol:
as §1

The target in series [5] is T3, rhCYP 2C9 (Homo sapiens, UniProt P11712).
T3 construct: purchased BD Gentest (Woburn, MA, USA); host or cells: Baculovirus transfected insect cell system
T3 sequence (P11712 whole entry): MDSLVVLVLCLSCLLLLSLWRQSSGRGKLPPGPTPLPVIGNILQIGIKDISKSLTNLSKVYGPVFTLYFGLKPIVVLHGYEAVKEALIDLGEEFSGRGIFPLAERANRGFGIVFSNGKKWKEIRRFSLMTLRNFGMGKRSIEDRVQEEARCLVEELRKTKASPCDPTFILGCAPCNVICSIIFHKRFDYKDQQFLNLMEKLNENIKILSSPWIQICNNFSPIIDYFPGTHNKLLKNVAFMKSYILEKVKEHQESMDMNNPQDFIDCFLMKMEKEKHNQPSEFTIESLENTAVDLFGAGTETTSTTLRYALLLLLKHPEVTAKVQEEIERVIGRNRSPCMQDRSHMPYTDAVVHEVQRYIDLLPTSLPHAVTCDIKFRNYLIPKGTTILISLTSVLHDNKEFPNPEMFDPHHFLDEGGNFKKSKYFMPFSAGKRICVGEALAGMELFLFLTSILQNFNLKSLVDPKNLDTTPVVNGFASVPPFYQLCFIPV
Briefly: Incubation with recombinantly expressed CYP2C9. Type of series: in vitro ADME. As to the method: as §1

Series [6] addresses T4, rhCYP1A2 (Homo sapiens, UniProt P05177).
T4 construct: purchased BD Gentest (Woburn, MA, USA); host or cells: Baculovirus transfected insect cell system
T4 sequence (P05177 1-516): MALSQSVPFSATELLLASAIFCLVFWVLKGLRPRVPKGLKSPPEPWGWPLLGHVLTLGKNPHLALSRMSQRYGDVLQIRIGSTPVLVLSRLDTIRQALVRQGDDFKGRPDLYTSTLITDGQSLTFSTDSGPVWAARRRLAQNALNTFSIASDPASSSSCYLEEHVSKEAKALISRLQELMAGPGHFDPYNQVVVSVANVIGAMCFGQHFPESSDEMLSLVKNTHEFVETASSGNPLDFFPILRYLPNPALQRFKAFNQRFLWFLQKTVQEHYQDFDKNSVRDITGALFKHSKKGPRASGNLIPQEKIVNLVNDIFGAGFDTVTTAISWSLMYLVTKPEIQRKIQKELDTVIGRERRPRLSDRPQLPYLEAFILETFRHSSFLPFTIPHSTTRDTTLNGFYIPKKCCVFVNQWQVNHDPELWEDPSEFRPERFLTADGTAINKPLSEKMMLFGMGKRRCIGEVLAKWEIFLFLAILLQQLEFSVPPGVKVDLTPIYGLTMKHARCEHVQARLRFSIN
Put plainly: Incubation with recombinantly expressed CYP1A2. Format: in vitro ADME. As to the method: as §1

Series [7] in a line: Human liver microsomal metabolism (no inhibitor). Format: in vitro ADME. The note with it: HLM incubations from phenotyping experiments, qualitative LC/MS. As to the method:
(§2) After a 10 min preincubation at 37°C, the reaction was initiated by addition of 0.15 mM NADP and further incubated for either 15 or 60 min. The reactions were terminated by the addition of two volumes DMSO. Samples were subsequently centrifuged at 4,000 rpm for 10 min. From the resulting supernatant, 10 μL was analyzed by LC-MS/MS.
(§3) Quantification was performed on a TSQ-Vantage instrument (Thermofisher Scientific, Bremen, Germany), fitted with an electrospray ionization source. […] Elution was performed on a Waters XBridge C18 column (3 × 2.1 mm, 2.5 μm; Waters, Boston MA, USA). Solvents A (0.1% formic acid in water) and B (0.1% formic acid in acetonitrile) were used at a flow rate of 500 μL/min. […] The final ratio was held for a further 0.6 min and then reduced again to 5% B over 0.05 min. Data was processed using QuickQuan (Thermofisher Scientific, Bremen, Germany).
Qualitative high resolution LC/MS data was acquired on a Waters Premier hybrid quadrupole time-of-flight (QToF) mass spectrometer (Waters, Boston MA, USA) equipped with a liquid chromatography system, using a 10 min gradient method and an Acquity UPLC BEH C18 (2.1 × 100 mm, 1.7 μm) column (Waters, Boston MA). The QToF Premier operated with a cone voltage of 30 eV and collision energy of 30 eV. […] The final ratio was held for 2 min and then reduced again to 5% B over 1 min. […]
(Liver microsomes are vesicles of endoplasmic reticulum, rich in cytochrome P450 enzymes.)

The target in series [8] is T5, rhCYP 2D6 (Homo sapiens, UniProt P10635).
T5 construct: purchased BD Gentest (Woburn, MA, USA); host or cells: Baculovirus transfected insect cell system
T5 sequence (P10635 whole entry): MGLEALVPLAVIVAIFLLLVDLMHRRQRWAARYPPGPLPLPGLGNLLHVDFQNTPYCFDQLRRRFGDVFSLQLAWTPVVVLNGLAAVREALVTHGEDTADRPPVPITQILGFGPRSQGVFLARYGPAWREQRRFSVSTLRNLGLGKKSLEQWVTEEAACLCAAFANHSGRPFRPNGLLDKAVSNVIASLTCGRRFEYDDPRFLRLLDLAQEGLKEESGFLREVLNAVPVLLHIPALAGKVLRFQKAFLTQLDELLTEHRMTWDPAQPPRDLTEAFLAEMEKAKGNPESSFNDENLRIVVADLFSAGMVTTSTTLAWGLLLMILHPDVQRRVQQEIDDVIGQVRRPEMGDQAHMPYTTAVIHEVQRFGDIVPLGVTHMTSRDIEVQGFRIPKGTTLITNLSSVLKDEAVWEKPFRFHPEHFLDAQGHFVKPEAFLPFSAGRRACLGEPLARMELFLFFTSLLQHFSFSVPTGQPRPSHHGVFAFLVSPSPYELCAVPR
Briefly: Incubation with recombinantly expressed CYP2D6. Type of series: in vitro ADME. The protocol:
as §1

Series [9] in a line: Human liver microsomal metabolism in the presence of cytochrome P450 diagnostic inhibitors. Format: in vitro ADME. The note with it: PiB 1.0 μM, 60 min. As to the method:
as §2, §3
Qualitative high resolution LC/MS data was acquired on a Waters Premier hybrid quadrupole time-of-flight (QToF) mass spectrometer (Waters, Boston MA, USA) equipped with a liquid chromatography system, using a 10 min gradient method and an Acquity UPLC BEH C18 (2.1 × 100 mm, 1.7 μm) column (Waters, Boston MA). The QToF Premier operated with a cone voltage of 30 eV and collision energy of 30 eV. […] The final ratio was held for 2 min and then reduced again to 5% B over 1 min. Interpretation of data was performed with Metabolynx software (Waters, Boston, MA, USA).

Where [10] appears, read: PiB 1.0 μM, rhCYP 100 pmol/mL, 15 and 60 min.
[11] abbreviates: scaled for approximate relative abundances of CYP isoforms in human liver [10].

“Also recorded” adds a separate entry of the source.

T2 sequence (P33261 whole entry): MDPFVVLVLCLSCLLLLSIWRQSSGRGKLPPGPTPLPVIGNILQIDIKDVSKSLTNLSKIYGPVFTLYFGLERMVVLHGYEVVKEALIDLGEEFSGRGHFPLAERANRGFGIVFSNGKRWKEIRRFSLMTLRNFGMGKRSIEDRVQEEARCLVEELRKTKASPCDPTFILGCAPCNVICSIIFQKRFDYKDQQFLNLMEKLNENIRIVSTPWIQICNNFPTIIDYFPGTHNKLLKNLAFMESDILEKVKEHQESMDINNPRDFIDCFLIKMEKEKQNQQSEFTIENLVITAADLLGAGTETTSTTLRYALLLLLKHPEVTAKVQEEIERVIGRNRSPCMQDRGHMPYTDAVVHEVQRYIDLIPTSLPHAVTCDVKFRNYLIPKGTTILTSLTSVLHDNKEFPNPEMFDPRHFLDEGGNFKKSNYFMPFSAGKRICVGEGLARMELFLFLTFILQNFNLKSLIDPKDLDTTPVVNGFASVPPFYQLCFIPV

Regarding `COc1ccccc1N1CCN(CCN(C(=O)C2CCC(F)CC2)c2ccccn2)CC1` (stereo not drawn) [FCWAY], the “metabolism after pretreatment with disulfuram” value in series [1] is recorded as “significantly reduced”.
For the compound `CNc1ccc(-c2nc3ccc(O)cc3s2)cc1` [PiB], the “drug-related species observed in rhCYP incubations” value in [2] is reported as “desmethyl metabolite”. In series [3] (setting [10]), the “observed turnover with rhCYP3A4” value is listed as “substrate; also recorded: high turnover”. For the same compound, the “contribution of CYP3A4 to metabolism after scaling” value in series [3] (setting [11]) was “primarily metabolized”. Further, the “observed turnover with rhCYP2C19” value in series [4] (setting [10]) was “substrate”. Further, in series [4] (setting [11]), the “contribution of CYP2C19 to metabolism after scaling” value was “only minor contributions”. Also, the “observed turnover with rhCYP2C9” value in series [5] (setting [10]) is listed as “substrate”. Also, in [5] (setting [11]), the “contribution of CYP2C9 to metabolism after scaling” value is “primarily metabolized”. Also, the “observed turnover with rhCYP1A2” value in [6] (setting [10]) was “substrate; also recorded: high turnover”. Moreover, the “contribution of CYP1A2 to metabolism after scaling” value in series [6] (setting [11]) is given as “primarily metabolized”. In series [7], the “drug-related species detected in HLM” value is reported as “desmethyl metabolite”. In addition, the “observed turnover with rhCYP2D6” value in [8] (setting [10]) was “substrate”. Further, the “contribution of CYP2D6 to metabolism after scaling” value in [8] (setting [11]) is listed as “only minor contributions”. For the same compound, the “change in HLM turnover with inhibitor of CYP1A2” value in series [9] (alpha-naphthoflavone 3 μM) is “significant reduction”. Besides, the “change in HLM turnover with inhibitor of CYP2C19” value in series [9] (benzylphenobarbital 1 μM) is “reduction in turnover is also apparent”. The “change in HLM turnover with inhibitor of CYP3A4” value in series [9] (ketoconazole 1 μM) is “significant reduction”. The “change in HLM turnover with inhibitor of CYP2D6” value in series [9] (quinidine 3 μM) is “reduction in turnover is also apparent”. Moreover, the “change in HLM turnover with inhibitor of CYP2C9” value in series [9] (sulfaphenazole 10 μM) is given as “reduction in turnover is also apparent”.
